These results are taken from patent US20260355188A1, “COMBINATION THERAPIES USING PRMT5 INHIBITORS AND BCL-2 FAMILY INHIBITORS FOR THE TREATMENT OF CANCER” (MIRATI THERAPEUTICS, INC., priority 2022, published 2026).

For data set [1], the system named is A549. As to the kind of experiment: In vitro combination synergy, A549 (Cell-Titer Glo). The format is cell-based. The following applies: combined with exemplary PRMT5 inhibitor, 120 h, sum of Loewe, Bliss, HSA and ZIP scores. Here is the method:
A panel of MTAP-deleted cancer cell lines was assembled to determine whether combining BCL-2 family inhibitors with exemplary PRMT5 inhibitors disclosed herein results in synergistic activity.
[Assays for determining the synergy score for the pairwise combinations for each cell line were performed in triplicate. 384 or 96-well plates plus additional wells of a separate 384 or 96-well control plate for determining baseline luminescence were seeded with cells of a particular MTAP-deleted cell line in a suitable growth medium for that cell line, e.g., RPMI 1640 medium supplemented with 10% FBS and any cell line specific reagents needed for growth. The plates were incubated overnight at 37 °C in a 5% CO2 atmosphere.
To each of the designated baseline wells, Cell-Titer Glo reagent (CTG; Promega Corporation) was added to each well and the plates were incubated for 20 min shaking at room temperature. Baseline luminescence was quantitated using a BMG ClarioStar multimode plate reader according to the manufacturer's instructions.
A series of 1000× drug dilutions in 100% DMSO was prepared that includes a 9-point single agent 3-fold dilution of the exemplary PRMT5 inhibitor (of the type described in WO2021/050915) with a top dose of 3000 nM (and a 6-point single agent 5-fold dilution of the BCL-2 family inhibitor with a top dose of 3000 nM as reference standards.
A 10× intermediate dosing plate was prepared in serum free medium that contains arrayed single agent dilutions of exemplary PRMT5 inhibitor (of the type described in WO2021/050915) and or the BCL-2 family inhibitor. In addition, a matrix of 54 dilution combinations of exemplary PRMT5 inhibitor (of the type described in WO2021/050915) and the BCL-2 family inhibitor was prepared as test samples.
To each corresponding well of the 384-well plates seeded with the appropriate cell line above, 10× single agent and the 54 combinations of the dose matrix was added and the plates were incubated for 120 hours at 37 °C in 5% CO2 atmosphere. Cell-Titer Glo reagent (CTG) was added to each test well, the plates were incubated for 20 min shaking at room temperature, and luminescence was quantitated using a BMG ClarioStar multimode plate reader according to the manufacturer's instructions. To normalize test samples, the determined baseline luminescence was subtracted from each test sample prior to analysis and mean values are calculated from replicate samples.
The output of the data from each mathematical model is the assignment of a relative synergy score. The data reported in Table 6 are the aggregate sum of the Loewe additivity, Bliss independence, Highest Single Agent and ZIP synergy scores (“Composite Synergy Score”).

For data set [2] the following is noted: oral; cited from earlier work.

`Cc1c(-c2ccc(N3CCc4cccc(C(=O)Nc5nc6ccccc6s5)c4C3)nc2C(=O)O)cnn1CC12CC3CC(CC(C3)C1)C2` [A-1331852]: the “Composite Synergy Score” value in data set [1] is listed as 42. In addition, in data set [2], the “bioavailable when administered orally” value is reported as “known to be bioavailable when administered orally”. With `CC1(C)CCC(c2ccc(Cl)cc2)=C(CN2CCN(c3ccc(C(=O)NS(=O)(=O)c4ccc(N[C@H](CCN5CCOCC5)CSc5ccccc5)c(S(=O)(=O)C(F)(F)F)c4)cc3)CC2)C1` [ABT-263, navitoclax], in data set [1], the “Composite Synergy Score” value is listed as 23.
